In patent US9844541B2, “Methods of modulating follicle stimulating hormone activity” (Strasspharma LLC, priority 2012, dated 2017):

Experiments:
[1] = Reproductive endocrine testing of patient treated with vismodegib (case study); type: in vivo, human; settings: patient on vismodegib 150 mg daily, about six months
From the text: (§1) A nulliparous person with a known diagnosis of Gorlin syndrome (Basal cell carcinoma nevus syndrome: Online Mendelian Inheritance in Man #109400) presented with more than 100 discrete BCC papules on the upper trunk and head, and neck regions. They were diagnosed and treated for lymphoma in 1988, prior to the BCCNS diagnosis and received chemotherapy and radiation therapy to the mantle zone, followed by radical neck dissection. They have remained in remission and their therapy had no apparent effect on menstrual function. They experienced menarche and had regular menses at 30 to 35 day intervals until starting the current therapy. Medications included synthroid 0.15 mg for longstanding hypothyroidism.
(§2) Several of their BCC lesions, while not clinically large, appeared in this area of combined radiation and surgical sclerosis overlying the carotid sheath. Multidisciplinary consultation recommended against further surgery. They commenced therapy with vismodegib (Erivedge™ Genentech, Inc., San Francisco, Calif.) 150 mg daily. […] Shortly thereafter they underwent a reproductive endocrinology evaluation.
(§3) Results of reproductive endocrine testing were unique and novel (Table 1). […] elevated FSH and low estrogen level were indicative of a markedly diminished ovarian reserve. However, the presence of preantral follicles and the high AMH value indicated preservation of normal ovarian potential and possible reversal of effect following cessation of therapy.

[2] = test system: follicle stimulating hormone (FSH) receptor (FSH-R); assay: Conclusion from endocrine profile: effect on FSH receptor signaling; type: in vivo, human; settings: concluded from the endocrine profile of one patient
Procedure: as §3
The endocrine profile of a patient who developed amenorrhea while taking vismodegib (Erivedge™) was determined. […] Secondary amenorrhea, […] of established menses, may result from a variety of conditions, including suppression of the pituitary release of FSH or its hypothalamic control via gonadotropin releasing hormone GnRH. This can be drug induced, but patients presenting in this manner typically have very low or non-detectable gonadotropin (FSH and LH) levels and low estrogen levels. Alternatively, patients with ovarian failure (follicle depletion or menopause) present with high gonadotropins, which may be induced by radiation and/or medication such as chemotherapy.
This led to the conclusion that the cause of amenorrhea in at least this patient treated with visomdegib was due to blockage of the follicle stimulating hormone (FSH) receptor (FSH-R) signaling.

[3] = Adverse effects and reproductive examination in patient treated with vismodegib (case study); type: in vivo, human; settings: 150 mg daily
From the text: as §1, §2

[4] = test system: BCC lesions (Gorlin syndrome); assay: Clinical response of BCC lesions in patient treated with vismodegib (case study); type: in vivo, human; settings: 150 mg daily, six months after commencing therapy
From the text: as §1, §2

[5] = oral therapy of BCC; cited from earlier work
[6] = shortly after six months of therapy

In the case of CS(=O)(=O)c1ccc(C(=O)Nc2ccc(Cl)c(-c3ccccn3)c2)c(Cl)c1 [vismodegib], the “Follicle stimulating hormone (FSH) level” value ([1]; follicular phase normal 2-8 IU/L) is reported as 16.0 IU/L, the Progesterone level ([1]; follicular phase range 0.2-1.5) is reported as 0.4 and the Estradiol level ([1]; follicular phase range 12.5-166 pg/ml) is reported as 26.9 pg/mL. For the same compound, the “Anti-mulerian hormone (AMH) level” value ([1]; normal range <6.9) was 2.6, the “Leutinizing hormone (LH) level” value ([1]; ovulation phase range 14.0-95.6) was 25.3 and the “Effect on FSH action at FSH-R” value [2] was “blocked the action of FSH on the FSH-R”. The Side effects ([3]; approximately four months after onset of amenorrhea) was “hair loss, slight dysgeusia, and minor leg cramping”, the Menstrual function ([3]; one month after start) was “became amenorrheic” and the “Transvaginal ultrasonography of ovaries” value [3, 6] was “normal ovaries, bilaterally containing multiple pre-antral follicles”. For the same compound, the Vaginal exam findings [3, 6] was “moderate atrophic vaginal changes suggesting hypoestrogenism”, the “Clinical resolution of BCC lesions” value [4] was “near complete clinical resolution of all lesions” and the Major side effects [5] was “dysgeusia, alopecia, leg cramping, and gastrointestinal disturbances”.
